Data reported in ChEMBL document CHEMBL5726074, “Histone demethylase inhibitors” (2017).

Tests used:
[1] = target: Lysine-specific demethylase 5B (Homo sapiens, UniProt Q9UGL1); experiment: Enzymatic Assay: The ability of test compounds to inhibit the activity of Jarid1B was determined in 384-well plate format under the following reaction conditions: 0.8 nM Jarid1B, 300 nM H3K4me3-biotin labeled peptide (Anaspec cat #64357), 2 μM alpha-ketoglutaric acid in assay buffer of 50 mM HEPES, pH7.3, 0.005% Brij35, 0.5 mM TCEP, 0.2 mg/ml BSA, 50 μM sodium L-ascorbate, and 2 μM ammonium iron(II) sulfate. Reaction product was determined quantitatively by TR-FRET after the addition of detection reagent Phycolink Streptavidin-allophycocyanin (Prozyme) and Europium-anti-mono- or di-methylated histone H3 lysine 4 (H3K4me1-2) antibody (PerkinElmer) in the presence of 5 mM EDTA in LANCE detection buffer (PerkinElmer) at a final concentration of 25 nM and 1 nM, respectively.The assay reaction was initiated by the following: 2 μl of the mixture of 900 nM H3K4me3-biotin labeled peptide and 6 μM alpha-ketoglutaric acid with 2 μl of 11-point serial diluted inhibitor in 3% DMSO was added to each well of the plate, followed by the addition of 2 μl of 2.4 nM Jarid1B to initiate the reaction. The reaction mixture was incubated at room temperature for 30 minutes, and terminated by the addition of 6 μl of 5 mM EDTA in LANCE detection buffer containing 50 nM Phycolink Streptavidin-allophycocyanin and 2 nM Europium-anti-H3K4me1-2 antibody. […]
[2] = target: T1, Lysine-specific demethylase 4C (Homo sapiens, UniProt Q9H3R0); experiment: Enzymatic Assay: The ability of test compounds to inhibit the activity of JMJD2C was determined in 384-well plate format under the following reaction conditions: 0.3 nM JMJD2C, 300 nM H3K9me3-biotin labeled peptide (Anaspec cat #64360), 2 μM alpha-ketoglutaric acid in assay buffer of 50 mM HEPES, pH7.3, 0.005% Brij35, 0.5 mM TCEP, 0.2 mg/ml BSA, 50 μM sodium L-ascorbate, and 2 μM ammonium iron(II) sulfate. Reaction product was determined quantitatively by TR-FRET after the addition of detection reagent Phycolink Streptavidin-allophycocyanin (Prozyme) and Europium-anti-di-methylated histone H3 lysine 9 (H3K9me2) antibody (PerkinElmer) in the presence of 5 mM EDTA in LANCE detection buffer (PerkinElmer) at a final concentration of 50 nM and 1 nM, respectively.The assay reaction was initiated by the following: 2 μl of the mixture of 900 nM H3K9me3-biotin labeled peptide and 6 μM alpha-ketoglutaric acid with 2 μl of 11-point serial diluted inhibitor in 3% DMSO were added to each well of the plate, followed by the addition of 2 μl of 0.9 nM JMJD2C to initiate the reaction. The reaction mixture was incubated at room temperature for 30 minutes, and terminated by the addition of 6 μl of 5 mM EDTA in LANCE detection buffer containing 100 nM Phycolink Streptavidin-allophycocyanin and 2 nM Europium-anti-H3K9me2 antibody. […]
T1 sequence (Q9H3R0 whole entry): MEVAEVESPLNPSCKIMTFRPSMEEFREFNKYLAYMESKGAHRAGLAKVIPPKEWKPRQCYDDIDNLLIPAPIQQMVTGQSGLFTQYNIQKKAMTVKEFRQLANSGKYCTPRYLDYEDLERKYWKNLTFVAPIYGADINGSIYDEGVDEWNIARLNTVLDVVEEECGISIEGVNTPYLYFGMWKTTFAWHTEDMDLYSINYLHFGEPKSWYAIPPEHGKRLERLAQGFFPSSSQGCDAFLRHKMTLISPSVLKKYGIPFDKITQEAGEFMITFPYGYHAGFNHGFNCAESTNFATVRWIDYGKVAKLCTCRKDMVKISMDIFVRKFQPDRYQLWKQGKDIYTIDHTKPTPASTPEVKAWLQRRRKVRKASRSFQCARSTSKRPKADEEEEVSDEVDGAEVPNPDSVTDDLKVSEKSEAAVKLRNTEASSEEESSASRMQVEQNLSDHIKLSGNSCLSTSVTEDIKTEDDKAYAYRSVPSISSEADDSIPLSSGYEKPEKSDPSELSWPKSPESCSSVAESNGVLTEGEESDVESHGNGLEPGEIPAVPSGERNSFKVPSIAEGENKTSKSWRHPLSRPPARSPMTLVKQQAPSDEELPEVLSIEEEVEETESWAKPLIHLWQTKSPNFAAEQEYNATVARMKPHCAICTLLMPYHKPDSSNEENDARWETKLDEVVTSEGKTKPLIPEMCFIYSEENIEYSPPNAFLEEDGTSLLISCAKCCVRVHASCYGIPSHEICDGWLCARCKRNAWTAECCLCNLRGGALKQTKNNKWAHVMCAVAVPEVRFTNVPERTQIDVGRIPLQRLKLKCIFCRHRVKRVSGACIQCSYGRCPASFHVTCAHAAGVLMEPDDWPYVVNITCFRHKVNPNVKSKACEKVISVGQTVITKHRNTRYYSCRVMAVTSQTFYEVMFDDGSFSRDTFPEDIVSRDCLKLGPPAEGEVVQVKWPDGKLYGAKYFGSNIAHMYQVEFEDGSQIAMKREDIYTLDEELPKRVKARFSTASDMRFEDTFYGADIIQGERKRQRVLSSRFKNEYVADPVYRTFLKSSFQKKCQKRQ

[3] = target: Lysine-specific demethylase 5A (Homo sapiens, UniProt P29375); experiment: Enzymatic Assay: The enzymatic assay of Jarid1A activity is based upon Time Resolved-Fluorescence Resonance Energy Transfer (TR-FRET) detection. The ability of test compounds to inhibit the activity of Jarid1A was determined in 384-well plate format under the following reaction conditions: 1 nM Jarid1A, 300 nM H3K4me3-biotin labeled peptide (Anaspec cat #64357), 2 μM alpha-ketoglutaric acid in …

Measured: IC50

Lysine-specific demethylase 5B, sequence (Q9UGL1 whole entry): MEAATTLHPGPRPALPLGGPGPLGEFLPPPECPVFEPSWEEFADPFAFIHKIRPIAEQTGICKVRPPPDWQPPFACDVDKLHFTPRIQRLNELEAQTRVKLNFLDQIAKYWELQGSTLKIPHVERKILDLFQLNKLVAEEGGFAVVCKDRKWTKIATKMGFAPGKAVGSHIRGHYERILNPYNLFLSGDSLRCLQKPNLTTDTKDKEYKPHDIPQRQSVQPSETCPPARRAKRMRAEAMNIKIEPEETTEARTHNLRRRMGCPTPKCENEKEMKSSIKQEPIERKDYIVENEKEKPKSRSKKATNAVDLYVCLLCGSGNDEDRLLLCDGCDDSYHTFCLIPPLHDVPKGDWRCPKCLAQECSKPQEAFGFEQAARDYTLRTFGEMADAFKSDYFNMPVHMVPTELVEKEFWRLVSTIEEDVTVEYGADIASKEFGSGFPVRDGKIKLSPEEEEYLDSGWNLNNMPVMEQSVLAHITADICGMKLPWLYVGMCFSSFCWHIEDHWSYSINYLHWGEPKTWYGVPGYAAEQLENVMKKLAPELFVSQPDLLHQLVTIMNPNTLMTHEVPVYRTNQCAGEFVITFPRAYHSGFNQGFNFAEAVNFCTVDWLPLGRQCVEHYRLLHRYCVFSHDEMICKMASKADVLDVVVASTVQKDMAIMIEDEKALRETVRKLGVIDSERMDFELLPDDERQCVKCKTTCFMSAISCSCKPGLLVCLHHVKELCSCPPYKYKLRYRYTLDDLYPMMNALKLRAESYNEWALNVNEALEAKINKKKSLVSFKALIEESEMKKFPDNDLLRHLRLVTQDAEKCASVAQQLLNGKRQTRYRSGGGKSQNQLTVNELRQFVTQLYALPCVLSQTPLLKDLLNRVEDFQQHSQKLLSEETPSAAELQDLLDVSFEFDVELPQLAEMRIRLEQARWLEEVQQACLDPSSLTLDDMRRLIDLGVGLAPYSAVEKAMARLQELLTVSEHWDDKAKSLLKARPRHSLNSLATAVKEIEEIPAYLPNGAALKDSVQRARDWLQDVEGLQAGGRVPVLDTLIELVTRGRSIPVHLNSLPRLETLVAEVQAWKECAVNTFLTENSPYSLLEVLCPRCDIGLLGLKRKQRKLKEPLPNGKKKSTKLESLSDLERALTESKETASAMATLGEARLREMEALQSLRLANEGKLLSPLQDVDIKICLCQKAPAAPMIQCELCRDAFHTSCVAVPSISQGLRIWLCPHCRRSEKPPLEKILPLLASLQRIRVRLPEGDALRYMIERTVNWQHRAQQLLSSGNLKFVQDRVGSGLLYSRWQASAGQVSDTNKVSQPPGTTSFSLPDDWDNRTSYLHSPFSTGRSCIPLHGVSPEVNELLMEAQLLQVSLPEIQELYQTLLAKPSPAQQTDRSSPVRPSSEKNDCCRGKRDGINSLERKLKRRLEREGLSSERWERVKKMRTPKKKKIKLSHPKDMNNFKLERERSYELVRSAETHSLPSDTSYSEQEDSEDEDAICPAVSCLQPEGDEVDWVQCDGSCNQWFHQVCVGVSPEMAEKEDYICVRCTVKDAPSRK
Lysine-specific demethylase 5A, sequence (P29375 whole entry): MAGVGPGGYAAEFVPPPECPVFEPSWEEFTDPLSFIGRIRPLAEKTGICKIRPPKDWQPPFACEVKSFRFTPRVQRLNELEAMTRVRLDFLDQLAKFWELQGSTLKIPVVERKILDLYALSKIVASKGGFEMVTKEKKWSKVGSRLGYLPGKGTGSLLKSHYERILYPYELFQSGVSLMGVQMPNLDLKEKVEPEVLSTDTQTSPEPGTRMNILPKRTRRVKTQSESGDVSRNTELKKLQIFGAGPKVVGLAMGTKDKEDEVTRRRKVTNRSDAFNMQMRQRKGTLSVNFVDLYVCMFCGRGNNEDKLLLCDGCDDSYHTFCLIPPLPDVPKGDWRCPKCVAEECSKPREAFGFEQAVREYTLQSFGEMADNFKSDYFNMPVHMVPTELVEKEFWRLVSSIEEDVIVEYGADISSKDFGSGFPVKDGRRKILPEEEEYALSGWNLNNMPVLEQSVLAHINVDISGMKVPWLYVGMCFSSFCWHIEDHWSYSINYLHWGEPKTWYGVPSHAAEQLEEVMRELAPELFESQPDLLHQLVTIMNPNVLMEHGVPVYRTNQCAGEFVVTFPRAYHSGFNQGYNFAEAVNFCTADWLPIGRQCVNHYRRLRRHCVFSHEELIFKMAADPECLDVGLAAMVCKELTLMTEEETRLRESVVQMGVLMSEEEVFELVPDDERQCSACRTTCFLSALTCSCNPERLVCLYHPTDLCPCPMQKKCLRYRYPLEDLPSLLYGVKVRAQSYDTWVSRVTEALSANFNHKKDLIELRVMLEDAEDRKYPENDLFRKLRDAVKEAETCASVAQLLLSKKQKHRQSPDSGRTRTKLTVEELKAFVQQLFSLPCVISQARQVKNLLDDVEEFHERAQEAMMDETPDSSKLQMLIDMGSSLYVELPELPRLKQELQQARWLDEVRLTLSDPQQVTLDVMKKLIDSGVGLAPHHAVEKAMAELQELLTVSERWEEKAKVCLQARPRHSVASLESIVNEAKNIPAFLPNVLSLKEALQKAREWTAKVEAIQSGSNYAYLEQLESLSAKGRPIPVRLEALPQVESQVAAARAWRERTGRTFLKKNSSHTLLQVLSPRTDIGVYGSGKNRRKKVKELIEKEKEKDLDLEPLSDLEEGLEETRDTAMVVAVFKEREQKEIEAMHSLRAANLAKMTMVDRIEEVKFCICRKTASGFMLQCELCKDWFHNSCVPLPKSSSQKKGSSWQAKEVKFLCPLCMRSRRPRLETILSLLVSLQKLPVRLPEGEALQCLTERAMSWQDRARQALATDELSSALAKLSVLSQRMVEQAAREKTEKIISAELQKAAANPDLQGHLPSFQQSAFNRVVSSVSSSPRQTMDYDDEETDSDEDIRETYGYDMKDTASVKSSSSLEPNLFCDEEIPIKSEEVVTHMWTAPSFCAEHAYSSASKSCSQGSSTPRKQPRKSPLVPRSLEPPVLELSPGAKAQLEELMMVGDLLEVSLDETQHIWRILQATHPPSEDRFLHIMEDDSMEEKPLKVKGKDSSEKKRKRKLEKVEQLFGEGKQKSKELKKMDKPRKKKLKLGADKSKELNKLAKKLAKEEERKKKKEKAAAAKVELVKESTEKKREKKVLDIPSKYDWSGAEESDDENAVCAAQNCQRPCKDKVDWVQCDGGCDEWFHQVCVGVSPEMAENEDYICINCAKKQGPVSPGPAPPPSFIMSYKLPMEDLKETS

O=C(O)c1ccncc1NCC1CCc2ccccc21 (stereo not drawn)
< 100 nM: all assays above
